Laboratory results taken from the NIST ThermoML archive (doi:10.1016/j.jct.2006.05.012).
Numbers after ± are expanded uncertainties.

Experiments:
[1] = 298.15 K; 101 kPa; Liquid
[2] = xn = mol fraction of the nth substance listed; settings: 298.15 K, 101 kPa, Liquid

Structure (SMILES): C=CC(=O)OCCCC [butyl 2-propenoate]
- mass density [1]: 893.96 ± 0.15 kg/m3

Structure (SMILES): C=CC(=O)OCCCC [butyl 2-propenoate] + C=C(C)C(=O)OC
- mass density ([2]; x1 = 0.025): 936.15 ± 0.12 kg/m3
- mass density ([2]; x1 = 0.0501): 934.64 ± 0.13 kg/m3
- mass density ([2]; x1 = 0.1001): 931.77 ± 0.13 kg/m3
- mass density ([2]; x1 = 0.1502): 929.01 ± 0.13 kg/m3
- mass density ([2]; x1 = 0.2): 926.33 ± 0.13 kg/m3
- mass density ([2]; x1 = 0.25): 923.76 ± 0.13 kg/m3
- mass density ([2]; x1 = 0.2946): 921.53 ± 0.13 kg/m3
- mass density ([2]; x1 = 0.3498): 918.85 ± 0.14 kg/m3
- mass density ([2]; x1 = 0.3992): 916.57 ± 0.14 kg/m3
- mass density ([2]; x1 = 0.45): 914.28 ± 0.14 kg/m3
- mass density ([2]; x1 = 0.4999): 912.12 ± 0.14 kg/m3
- mass density ([2]; x1 = 0.5499): 910.04 ± 0.14 kg/m3
- mass density ([2]; x1 = 0.5999): 908.01 ± 0.14 kg/m3
- mass density ([2]; x1 = 0.644): 906.27 ± 0.15 kg/m3
- mass density ([2]; x1 = 0.6991): 904.19 ± 0.15 kg/m3
- mass density ([2]; x1 = 0.7499): 902.33 ± 0.15 kg/m3
- mass density ([2]; x1 = 0.8002): 900.52 ± 0.15 kg/m3
- mass density ([2]; x1 = 0.8504): 898.81 ± 0.15 kg/m3
- mass density ([2]; x1 = 0.8994): 897.15 ± 0.15 kg/m3
- mass density ([2]; x1 = 0.9499): 895.53 ± 0.15 kg/m3
- mass density ([2]; x1 = 0.9749): 894.72 ± 0.15 kg/m3
- mass density ([2]; x1 = 1): 893.96 ± 0.15 kg/m3

Structure (SMILES): C=CC(=O)OCCCC [butyl 2-propenoate] + Cc1ccccc1
- mass density ([2]; x2 = 0): 893.955 ± 0.15 kg/m3
- mass density ([2]; x2 = 0.0255): 893.406 ± 0.15 kg/m3
- mass density ([2]; x2 = 0.0508): 892.895 ± 0.15 kg/m3
- mass density ([2]; x2 = 0.0999): 891.775 ± 0.16 kg/m3
- mass density ([2]; x2 = 0.1509): 890.523 ± 0.16 kg/m3
- mass density ([2]; x2 = 0.2006): 889.277 ± 0.16 kg/m3
- mass density ([2]; x2 = 0.2506): 887.998 ± 0.16 kg/m3
- mass density ([2]; x2 = 0.2996): 886.7 ± 0.16 kg/m3
- mass density ([2]; x2 = 0.3597): 885.033 ± 0.16 kg/m3
- mass density ([2]; x2 = 0.4006): 883.858 ± 0.16 kg/m3
- mass density ([2]; x2 = 0.4504): 882.402 ± 0.16 kg/m3
- mass density ([2]; x2 = 0.5015): 880.847 ± 0.16 kg/m3
- mass density ([2]; x2 = 0.55): 879.307 ± 0.17 kg/m3
- mass density ([2]; x2 = 0.6006): 877.659 ± 0.17 kg/m3
- mass density ([2]; x2 = 0.6502): 875.977 ± 0.17 kg/m3
- mass density ([2]; x2 = 0.7003): 874.219 ± 0.17 kg/m3
- mass density ([2]; x2 = 0.7501): 872.408 ± 0.17 kg/m3
- mass density ([2]; x2 = 0.8): 870.53 ± 0.17 kg/m3
- mass density ([2]; x2 = 0.8499): 868.551 ± 0.17 kg/m3
- mass density ([2]; x2 = 0.9001): 866.487 ± 0.17 kg/m3
- mass density ([2]; x2 = 0.95): 864.338 ± 0.18 kg/m3
- mass density ([2]; x2 = 0.9751): 863.216 ± 0.18 kg/m3

Structure (SMILES): C=C(C)C(=O)OC [methyl methacrylate]
- mass density [1]: 937.65 ± 0.12 kg/m3

Structure (SMILES): C=C(C)C(=O)OC [methyl methacrylate] + C=CC(=O)OCCCC
- mass density ([2]; x2 = 0): 937.65 ± 0.12 kg/m3

Structure (SMILES): C=C(C)C(=O)OC [methyl methacrylate] + Cc1ccccc1
- mass density ([2]; x2 = 0): 937.646 ± 0.12 kg/m3
- mass density ([2]; x2 = 0.0249): 935.719 ± 0.12 kg/m3
- mass density ([2]; x2 = 0.0501): 933.759 ± 0.13 kg/m3
- mass density ([2]; x2 = 0.1005): 929.859 ± 0.13 kg/m3
- mass density ([2]; x2 = 0.15): 926.06 ± 0.13 kg/m3
- mass density ([2]; x2 = 0.1994): 922.3 ± 0.13 kg/m3
- mass density ([2]; x2 = 0.2497): 918.45 ± 0.14 kg/m3
- mass density ([2]; x2 = 0.3001): 914.63 ± 0.14 kg/m3
- mass density ([2]; x2 = 0.35): 910.852 ± 0.14 kg/m3
- mass density ([2]; x2 = 0.3998): 907.089 ± 0.14 kg/m3
- mass density ([2]; x2 = 0.4501): 903.299 ± 0.15 kg/m3
- mass density ([2]; x2 = 0.5): 899.556 ± 0.15 kg/m3
- mass density ([2]; x2 = 0.5501): 895.803 ± 0.15 kg/m3
- mass density ([2]; x2 = 0.5979): 892.219 ± 0.16 kg/m3
- mass density ([2]; x2 = 0.6486): 888.421 ± 0.16 kg/m3
- mass density ([2]; x2 = 0.6998): 884.596 ± 0.16 kg/m3
- mass density ([2]; x2 = 0.7499): 880.84 ± 0.16 kg/m3
- mass density ([2]; x2 = 0.794): 877.532 ± 0.17 kg/m3
- mass density ([2]; x2 = 0.8481): 873.485 ± 0.17 kg/m3
- mass density ([2]; x2 = 0.9): 869.606 ± 0.17 kg/m3
- mass density ([2]; x2 = 0.95): 865.864 ± 0.17 kg/m3
- mass density ([2]; x2 = 0.9731): 864.133 ± 0.18 kg/m3

Structure (SMILES): Cc1ccccc1 [toluene]
- mass density [1]: 862.11 ± 0.18 kg/m3

Structure (SMILES): Cc1ccccc1 [toluene] + C=C(C)C(=O)OC
- mass density ([2]; x1 = 1): 862.11 ± 0.18 kg/m3

Structure (SMILES): Cc1ccccc1 [toluene] + C=CC(=O)OCCCC
- mass density ([2]; x1 = 1): 862.11 ± 0.18 kg/m3
